This is an account of results in patent publication US12492188B2, “1H-benzo[D]imidazole derivatives as TLR9 inhibitors for the treatment of fibrosis” (BRISTOL-MYERS SQUIBB COMPANY, priority 2020, dated 2025).

In assay [1] the target is T1, human TLR9 (Homo sapiens, UniProt Q9NR96).
T1 construct: host or cells: HEK-Blue cells (HEK293-derived reporter line)
T1 sequence (Q9NR96 26-1032): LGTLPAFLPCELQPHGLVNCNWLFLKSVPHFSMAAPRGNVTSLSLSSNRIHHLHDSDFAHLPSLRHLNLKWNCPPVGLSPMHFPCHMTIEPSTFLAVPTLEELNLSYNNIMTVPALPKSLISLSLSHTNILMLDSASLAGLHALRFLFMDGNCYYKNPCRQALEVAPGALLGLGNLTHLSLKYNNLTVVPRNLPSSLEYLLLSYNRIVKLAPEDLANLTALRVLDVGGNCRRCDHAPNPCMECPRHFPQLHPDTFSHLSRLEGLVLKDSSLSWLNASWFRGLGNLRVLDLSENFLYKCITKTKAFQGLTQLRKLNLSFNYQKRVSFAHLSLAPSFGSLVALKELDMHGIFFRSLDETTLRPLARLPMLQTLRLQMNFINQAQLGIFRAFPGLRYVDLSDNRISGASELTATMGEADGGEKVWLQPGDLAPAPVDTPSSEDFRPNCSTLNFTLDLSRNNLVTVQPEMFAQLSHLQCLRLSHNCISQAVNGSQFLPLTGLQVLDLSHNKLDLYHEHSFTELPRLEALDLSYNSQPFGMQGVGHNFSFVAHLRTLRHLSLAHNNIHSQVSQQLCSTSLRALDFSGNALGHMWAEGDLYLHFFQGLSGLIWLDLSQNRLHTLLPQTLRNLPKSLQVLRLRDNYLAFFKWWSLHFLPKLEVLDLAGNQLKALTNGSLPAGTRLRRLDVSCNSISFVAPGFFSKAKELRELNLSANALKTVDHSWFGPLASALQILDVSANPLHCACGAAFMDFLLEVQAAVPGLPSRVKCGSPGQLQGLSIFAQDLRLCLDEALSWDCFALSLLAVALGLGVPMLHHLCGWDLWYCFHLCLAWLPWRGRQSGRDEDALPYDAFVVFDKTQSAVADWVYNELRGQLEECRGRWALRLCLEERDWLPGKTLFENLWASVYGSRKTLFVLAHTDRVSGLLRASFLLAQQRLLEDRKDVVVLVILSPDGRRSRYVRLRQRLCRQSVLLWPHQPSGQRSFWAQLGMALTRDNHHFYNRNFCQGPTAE
In words: TLR9 inhibition reporter assay (HEK-Blue cells, secreted embryonic alkaline phosphatase reporter). The class given is cell-based. In short, it runs like this:
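HEK-Blue cells overexpressing the respective receptor, with an NF-κB/AP-1-driven SEAP reporter, were pre-treated with compound (0.05 nM–50 μM) for 30 min at room temperature. Stimulation used gardiquimod 7.5 μM (TLR7), R848 15.9 μM (TLR8) or ODN2006 5 nM (TLR9); SEAP was read after 22 h at 37 °C as percent inhibition.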
On the technique in general: Reporter assays use an easily measured gene product as a stand-in for the process of interest.

Assay [2] concerns the target T2, human TLR8 (Homo sapiens, UniProt Q9NR97).
T2 construct: host or cells: HEK-Blue cells (HEK293-derived reporter line)
T2 sequence (Q9NR97 27-1041): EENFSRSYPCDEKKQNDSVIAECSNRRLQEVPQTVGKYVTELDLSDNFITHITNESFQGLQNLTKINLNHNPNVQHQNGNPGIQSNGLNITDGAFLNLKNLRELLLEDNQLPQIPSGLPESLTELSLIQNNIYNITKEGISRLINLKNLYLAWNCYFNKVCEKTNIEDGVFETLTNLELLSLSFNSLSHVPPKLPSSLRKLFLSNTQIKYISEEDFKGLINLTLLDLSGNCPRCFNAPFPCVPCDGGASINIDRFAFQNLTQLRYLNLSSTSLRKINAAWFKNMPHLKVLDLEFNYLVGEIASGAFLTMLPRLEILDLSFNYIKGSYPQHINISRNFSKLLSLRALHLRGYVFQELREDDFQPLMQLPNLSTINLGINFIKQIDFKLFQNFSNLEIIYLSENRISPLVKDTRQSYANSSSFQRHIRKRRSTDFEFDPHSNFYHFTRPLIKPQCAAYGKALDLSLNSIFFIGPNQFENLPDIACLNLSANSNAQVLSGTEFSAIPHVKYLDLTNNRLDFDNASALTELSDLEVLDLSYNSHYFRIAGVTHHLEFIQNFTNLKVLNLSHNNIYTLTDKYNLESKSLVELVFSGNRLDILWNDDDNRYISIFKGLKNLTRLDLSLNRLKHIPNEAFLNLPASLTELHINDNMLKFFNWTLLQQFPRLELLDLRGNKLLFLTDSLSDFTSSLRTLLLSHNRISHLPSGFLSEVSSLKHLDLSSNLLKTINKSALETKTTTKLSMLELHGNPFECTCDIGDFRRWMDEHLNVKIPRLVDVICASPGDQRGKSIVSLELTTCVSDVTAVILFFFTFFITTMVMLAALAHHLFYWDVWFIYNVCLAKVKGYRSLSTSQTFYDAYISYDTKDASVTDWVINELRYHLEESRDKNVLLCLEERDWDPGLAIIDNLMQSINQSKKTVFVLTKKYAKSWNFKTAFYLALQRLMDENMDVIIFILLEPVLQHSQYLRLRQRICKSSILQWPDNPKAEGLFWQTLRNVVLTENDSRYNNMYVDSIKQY
In words: TLR8 inhibition reporter assay (HEK-Blue cells, secreted embryonic alkaline phosphatase reporter). The settings on record: HEK-Blue cells overexpressing human TLR8, stimulated with R848 15.9 μM; read-out: TLR 8 IC50. The class given is cell-based. Here is the method:
TLR7/8/9 Inhibition Reporter Assays
HEK-Blue™-cells (Invivogen) overexpressing human TLR7, TLR8 or TLR9 receptors were used for screening inhibitors of these receptors using an inducible SLAP (secreted embryonic alkaline phosphatase) reporter gene under the control of the […] minimal promoter fused to five NF-κB and AP-1-binding sites. Briefly, cells are seeded into Greiner 384 well plates (15000 cells per well for TLR7, 20,000 for TLR8 and 25,000 for TLR9) and then treated with test compounds in DMSO to yield a final dose response concentration range of 0.05 nM-50 μM. After a 30 minute compound pre-treatment at room temperature, the cells are then stimulated with a TLR7 ligand (gardiquimod at a final concentration of 7.5 μM), TLR8 ligand (R848 at a final concentration of 15.9 μM) or TLR9 ligand (ODN2006 at a final concentration of 5 nM) to activate NF-κB and AP-1 which induce the production of SLAP. After a 22 hour incubation at 37° C., […], SLAP levels are determined with the addition of HEK-Blue™ Detection reagent (Invivogen), a cell culture medium that allows for detection of SLAP, according to manufacturer's specifications. The percent inhibition is determined as the […] in the HEK-Blue signal present in wells treated with agonist plus DMSO alone compared to wells treated with a known inhibitor.

[3] abbreviates: HEK-Blue cells overexpressing human TLR9, stimulated with ODN2006 5 nM, 22 hour incubation, reporter readout.
[4] abbreviates: HEK-Blue cells overexpressing human TLR9, stimulated with ODN2006 5 nM, read-out: TLR 9 IC50.

Like-named read-outs stand apart in the source and are kept apart here.

The IC50 is the concentration that inhibits the measured activity by half.

`COc1ccc(-c2nc3cc(C4CCN(C5CCN(C6CC6)CC5)CC4)ccc3n2C)cc1OC` [Example 35, 5-(1′-cyclopropyl-[1,4′-bipiperidin]-4-yl)-2-(3,4-dimethoxyphenyl)-1-methyl-1H-benzo[d]imidazole]: the IC50 in assay [1] (setting [3]) was 850 nM; in assay [1] (setting [4]), 852 nM; in assay [2] it was more than 50000 nM.
With `COc1cc(-c2nc3c(C)cc(C4CCN(C5CC6CCC(C5)N6CC(C)C)CC4)cc3n2C)cn2ncnc12` (centres unmarked) [Example 126, 6-(6-(1-(8-isobutyl-8-azabicyclo[3.2.1]octan-3-yl)piperidin-4-yl)-1,4-dimethyl-1H-benzo[d]imidazol-2-yl)-8-methoxy-[1,2,4]triazolo[1,5-a]pyridine], the IC50 worked out at 590 nM in assay [1] (setting [3]), 588 nM in assay [1] (setting [4]) and 4500 nM in assay [2].
For the compound `Cn1c(-c2ccc(S(C)(=O)=O)cc2)nc2ccc(C3CCN(C4CC5CCC(C4)N5C4COC4)CC3)c(F)c21` (centres unmarked) [Example 272, 7-fluoro-1-methyl-2-(4-(methylsulfonyl)phenyl)-6-(1-(8-(oxetan-3-yl)-8-azabicyclo[3.2.1]octan-3-yl)piperidin-4-yl)-1H-benzo[d]imidazole], the IC50 in assay [1] (setting [4]) is 600 nM; in assay [2], more than 50000 nM.
Consider `Cn1c(-c2ccc(S(C)(=O)=O)cc2)nc2c(F)cc(C3CCN(C4CC5CCC(C4)N5C4COC4)CC3)cc21` (centres unmarked) [Example 287, 4-fluoro-1-methyl-2-(4-(methylsulfonyl)phenyl)-6-(1-(8-(oxetan-3-yl)-8-azabicyclo[3.2.1]octan-3-yl)piperidin-4-yl)-1H-benzo[d]imidazole], for which the IC50 in assay [1] (setting [4]) is 104 nM; in assay [1] (HEK-Blue human TLR9 reporter cells) it was 100 nM; in assay [2], more than 50000 nM.
Take `Cc1cc(-c2ccc(CN3CCC(N4CCCC4)CC3)c(F)c2)cc2c1nc(-c1ccc(S(C)(=O)=O)cc1)n2C` [Example 387, 6-(3-fluoro-4-((4-(pyrrolidin-1-yl)piperidin-1-yl)methyl)phenyl)-1,4-dimethyl-2-(4-(methylsulfonyl)phenyl)-1H-benzo[d]imidazole]: the IC50 was found to be 56 nM in assay [1] (setting [3]), 56 nM in assay [1] (setting [4]) and 7300 nM in assay [2].
